Measurements reported in the supplement of paper PMC10307832.

What was measured:
Experiment in all cases: relative viability (nuclei count vs DMSO), 5 days (fraction); higher = more cells survive
[1] = compound: COc1cc([C@@H]2c3cc4c(cc3[C@@H](O[C@@H]3O[C@@H]5CO[C@@H](C)O[C@H]5[C@H](O)[C@H]3O)[C@H]3COC(=O)[C@H]23)OCO4)cc(OC)c1O [Etoposide] + N=C(N)NC(=N)NCCc1ccccc1 [Phenformin] (partner 250 µM)
Method in brief: (§1)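 Lung cancer cell lines were seeded in 1536-well plates and dosed by pin tool the next day, with either a single drug or a fixed anchor-drug dose combined with five library-drug doses (not always all listed) spaced in √10 steps. Five days later, one step fixed the cells and stained their nuclei (final 0.05% Triton X-100, 1% formaldehyde, 1 ug/ml Hoechst), and nuclei were counted on 4× images. Relative viability is the nuclei count in treated wells divided by the count in vehicle wells, and each value is the median of duplicate plates.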

[2] = compound: COc1cc([C@@H]2c3cc4c(cc3[C@@H](O[C@@H]3O[C@@H]5CO[C@@H](C)O[C@H]5[C@H](O)[C@H]3O)[C@H]3COC(=O)[C@H]23)OCO4)cc(OC)c1O [Etoposide] + Cc1nc(NC(=O)N2CCC[C@H]2C(N)=O)sc1-c1ccnc(C(C)(C)C(F)(F)F)c1 [Alpelisib] (partner 2 µM)
Method in brief: as §1

[3] = compound: COc1cc([C@@H]2c3cc4c(cc3[C@@H](O[C@@H]3O[C@@H]5CO[C@@H](C)O[C@H]5[C@H](O)[C@H]3O)[C@H]3COC(=O)[C@H]23)OCO4)cc(OC)c1O [Etoposide] + Cc1cc(Nc2cc(N3CCN(C)CC3)nc(Sc3ccc(NC(=O)C4CC4)cc3)n2)n[nH]1 [Tozasertib] (partner 0.1 µM)
Method in brief: as §1

[4] = compound: COc1cc([C@@H]2c3cc4c(cc3[C@@H](O[C@@H]3O[C@@H]5CO[C@@H](C)O[C@H]5[C@H](O)[C@H]3O)[C@H]3COC(=O)[C@H]23)OCO4)cc(OC)c1O [Etoposide] + CC(=O)c1c(C)c2cnc(Nc3ccc(N4CCNCC4)cn3)nc2n(C2CCCC2)c1=O [Palbociclib] (partner 0.5 µM)
Method in brief: as §1

Row | Cell Line | relative viability ([1]; first compound 0.01 µM) | relative viability ([1]; first compound 0.03162 µM) | relative viability ([1]; first compound 0.1 µM) | relative viability ([1]; first compound 0.3162 µM) | relative viability ([1]; first compound 1 µM) | relative viability ([2]; first compound 0.01 µM) | relative viability ([2]; first compound 0.03162 µM) | relative viability ([2]; first compound 0.1 µM) | relative viability ([2]; first compound 0.3162 µM) | relative viability ([2]; first compound 1 µM) | relative viability ([3]; first compound 0.01 µM) | relative viability ([3]; first compound 0.03162 µM) | relative viability ([3]; first compound 0.1 µM) | relative viability ([3]; first compound 0.3162 µM) | relative viability ([3]; first compound 1 µM) | relative viability ([4]; first compound 0.01 µM) | relative viability ([4]; first compound 0.03162 µM) | relative viability ([4]; first compound 0.1 µM) | relative viability ([4]; first compound 0.3162 µM) | relative viability ([4]; first compound 1 µM)
1 | LC-2-ad | 0.602 | 0.559 | 0.456 | 0.344 | 0.268 | 0.888 | 0.911 | 0.846 | 0.532 | 0.172 | 0.39 | 0.441 | 0.327 | 0.339 | 0.285 | 0.52 | 0.509 | 0.557 | 0.455 | 0.452
2 | NCI-H1703 | – | – | – | – | – | 0.406 | 0.367 | 0.31 | 0.287 | 0.255 | – | – | – | – | – | – | – | – | – | –
3 | NCI-H1437 | 0.265 | 0.342 | 0.357 | 0.233 | 0.2 | 0.915 | 0.945 | 0.883 | 0.42 | 0.256 | 0.433 | 0.4 | 0.429 | 0.293 | 0.318 | 0.278 | 0.352 | 0.279 | 0.293 | 0.269
4 | SW 1573 | 0.341 | 0.36 | 0.255 | 0.183 | 0.142 | 0.6 | 0.857 | 0.55 | 0.404 | 0.223 | 0.163 | 0.133 | 0.164 | 0.156 | 0.0887 | 0.363 | 0.349 | 0.288 | 0.16 | 0.109
5 | H3255 | 0.35 | 0.404 | 0.353 | 0.322 | 0.305 | 0.606 | 0.758 | 0.448 | 0.585 | 0.298 | 0.631 | 0.605 | 0.577 | 0.238 | 0.249 | 0.331 | 0.334 | 0.351 | 0.315 | 0.281
6 | Calu-6 | – | – | – | – | – | 0.837 | 1.08 | 0.798 | 0.709 | 0.338 | – | – | – | – | – | – | – | – | – | –
7 | NCI-H1792 | 0.177 | 0.189 | – | 0.257 | 0.0965 | 0.61 | 0.415 | 0.374 | 0.549 | 0.302 | – | – | – | – | – | 0.579 | 0.636 | 0.598 | 0.606 | 0.461
8 | SK-MES-1 | 0.654 | 0.683 | 0.582 | 0.402 | 0.248 | 0.746 | 0.957 | 0.496 | 0.518 | 0.249 | 0.877 | 0.807 | 0.833 | 0.389 | 0.222 | 0.338 | 0.31 | 0.315 | 0.262 | 0.239
9 | NCI-H1650 | 0.421 | 0.31 | 0.374 | 0.194 | 0.141 | – | – | – | – | – | 0.381 | 0.356 | 0.337 | 0.197 | 0.208 | 0.376 | 0.36 | 0.26 | 0.199 | 0.168
10 | NCI-H2126 | 0.524 | 0.534 | 0.427 | 0.413 | 0.236 | 0.75 | 0.75 | 0.52 | 0.723 | 0.306 | 0.739 | 0.854 | 0.632 | 0.63 | 0.254 | 0.32 | 0.39 | 0.316 | 0.368 | 0.34
11 | HCC-366 | 0.647 | 0.625 | 0.327 | 0.333 | 0.0669 | 0.305 | 0.39 | 0.333 | 0.162 | 0.0382 | 0.0819 | 0.087 | 0.0918 | 0.0736 | 0.0452 | 0.341 | 0.375 | 0.257 | 0.071 | 0.0568
12 | EBC-1 | – | – | – | – | – | 0.841 | 0.909 | 0.452 | 0.75 | 0.38 | – | – | – | – | – | – | – | – | – | –
13 | NCI-H1623 | 0.624 | 0.615 | 0.388 | 0.485 | 0.281 | – | – | – | – | – | 0.416 | 0.392 | 0.349 | 0.396 | 0.259 | – | – | – | – | –
14 | NCI-H2342 | 0.646 | 0.643 | 0.425 | 0.351 | 0.284 | – | – | – | – | – | 0.528 | 0.512 | 0.379 | 0.315 | 0.272 | 0.463 | 0.542 | 0.423 | 0.425 | 0.331
15 | SW 900 | 0.359 | 0.618 | 0.459 | 0.322 | 0.16 | – | – | – | – | – | 0.459 | 0.666 | 0.55 | 0.341 | 0.224 | 0.585 | 0.503 | 0.593 | 0.492 | 0.263
16 | NCI-H1563 | 0.628 | 0.7 | 0.609 | 0.55 | 0.476 | 0.855 | 0.918 | 0.868 | 0.588 | 0.557 | – | – | – | – | – | – | – | – | – | –
17 | NCI-H1299 | – | – | – | – | – | 1.04 | 1.04 | 1.14 | 1.02 | 0.872 | – | – | – | – | – | – | – | – | – | –
18 | NCI-H522 | 0.665 | 0.623 | 0.535 | 0.595 | 0.614 | – | – | – | – | – | 0.589 | 0.554 | 0.539 | 0.59 | 0.516 | 0.926 | 0.988 | 0.849 | 1.16 | 0.797
19 | A549 | 0.2 | 0.121 | 0.116 | 0.0719 | 0.0368 | 0.737 | 0.793 | 0.375 | 0.224 | 0.0497 | – | – | – | – | – | – | – | – | – | –
20 | NCI-H1648 | – | – | – | – | – | – | – | – | – | – | – | 0.359 | 0.416 | 0.282 | 0.28 | – | 0.289 | 0.211 | 0.297 | 0.265
21 | IA-LM | – | – | – | – | – | 0.773 | 0.815 | 0.477 | 0.645 | 0.552 | – | – | – | – | – | – | – | – | – | –
22 | ChaGo-K-1 | 0.423 | 0.546 | 0.471 | 0.282 | 0.169 | – | – | – | – | – | 0.192 | 0.212 | 0.211 | 0.181 | 0.187 | 0.929 | 0.952 | 0.682 | 0.289 | 0.222
23 | NCI-H596 | 0.774 | 0.875 | 0.584 | 0.788 | 0.522 | 0.383 | 0.491 | – | 0.457 | 0.425 | 0.774 | 1.05 | 0.843 | 0.543 | 0.683 | – | – | – | – | –
